{"source": "patent US12589085B2", "about": "“Use of diaminoguanidine derivative and feed composition thereof in preparation of veterinary drug” (priority 2019, dated 2026)", "key": {"[1]": {"system": "bone marrow cells of mice", "details": "cyclophosphamide 40 mg/kg intraperitoneal, n = 5", "procedure": "Experimental animals: 60 clean and healthy ICR mice have the average weight of 18-20 g, half female and half male, purchased from the Comparative Medicine Center of Yangzhou University. […]\nSpecimen preparation: 6 hours after the second administration of the test article, […] and 5 […] in each group were sacrificed by cervical dislocation. […] The fixed smear is stained with Giemsa application solution for 15-30 min, rinsed with distilled water, dried, and gets ready for inspection.\nThe film was read by double-blind method, the number of polychromatic red blood cells (PCE) of each mouse was recorded in each group, including the number of micronucleus PCE cells, and the number of mature red blood cells (RBC), and the like. The number of polychromatic red blood cells (PCE) was calculated, including the number of micronucleus PCE cells and the number of mature red blood cells (RBC) in each test group of male and female mice respectively, and the results were listed.\nThe experimental data is processed by SPSS 11.0 statistical software, and the analysis result is expressed as x±SD, and the incidence of micronucleus is statistically processed according to the X^2 test (α=0.05)."}, "[2]": {"system": "sperm", "details": "cyclophosphamide 40 mg/kg once a day 5 days", "procedure": "Experimental animals: 60 clean-grade healthy male ICR mice having the average weight of 18-20 g, purchased from the Comparative Medicine Center of Yangzhou University.\nReagents: Test agent, Compound 2, provided by Guangzhou Insighter Biotechnology Co., Ltd., was prepared into a suspension of the required concentration with 1.0% sodium carboxymethyl cellulose before use; the mutagenic positive control article of cyclophosphamide with the content of 99.00%; other reagents include sodium chloride, methanol, and eosin, all of analytical grade; self-prepared physiological saline; self-prepared eosin aqueous solution (2%).\nThe test article, Compound 2 was diluted with 1.0% sodium carboxymethyl cellulose as a solvent, and it was given by oral in different concentrations and the same volume. There is also a positive control and a negative (solvent) control. The cyclophosphamide was selected as the positive control (40 mg/kg).\nGrouping of experimental animals: 60 healthy male mice were individually weighed, labeled and numbered, and they were divided into 5 groups with 12 mice in each group using a completely random method. It was ensured that 10 animals in each group survive for sampling and film making after administration.\nAdministration: The administration method is carried out according to GB15193.7-2003. The test group, the negative control and the positive control are all given the test article by oral once a day for 5 consecutive days. The weight of the mouse for each administration was weighed, and the volume of the test article that each mouse should administer was calculated according to the requirements of the mouse 0.2 mL/10 g b.w.\nSampling and sample preparation: The mice were sacrificed by cervical dislocation on the Day 35 after the first administration, and sampling and film making were performed. 10 mice were sampled in each dose group. The abdominal cavity was cut, the epididymis on both sides were separated and extracted, and put in a petri dish containing 2 mL of normal saline; The mice were longitudinally cut with ophthalmological scissors for 2 times, the normal saline in it was pipetted with a straw for several times, and let stand for 3 min; the tissue fragments were filtered with a 4-layer of lens cleaning paper, 1 drop of the filtrate was drawn onto the glass slide, the slide was pushed with 4 slides per mouse; the slide in the air dried naturally, and fixed with methanol for 10 minutes, and dried; stained with 2% eosin for 1 h, the dye solution was gently washed off with water, and it was dried naturally before microscopic examination.\nData collation and analysis: The number of normal sperm, the number of abnormal sperm and the number of various types of abnormal sperm were read and counted in each dose group of mice. The sperm abnormality rate (%) of mice in each dose group and the percentage (%) of various types of abnormal sperm were calculated, and the standard deviation of the sperm abnormality rate of mice was also calculated in each dose group. Calculation as follows:\nThe sperm abnormality rate of mice in each dose group was statistically compared with the sperm abnormality rate of mice in the negative (solvent) control. The experimental data was processed by SPSS 11.0 statistical software, and the analysis results were expressed as x±SD, and the incidence of sperm abnormalities was statistically processed according to the X^2 (α=0.05).\nIf the dose of the test group has caused the animal to die, while the sperm abnormality has not increased, the result can be judged to be negative."}}, "note": "Read-outs that look alike come from different tables or passages of the source.", "data": [{"smiles": "O=P1(N(CCCl)CCCl)NCCCO1", "note": "(stereo not drawn) [Positive control, cyclophosphamide, reference compound]", "values": [{"measurement": "PCE micronucleus rate", "setting": "[1]; female mice", "result": "15.00 ± 2.42 ‰"}, {"measurement": "PCE micronucleus rate", "setting": "[1]; male mice", "result": "15.20 ± 2.37 ‰"}, {"measurement": "Total number of abnormal sperm", "setting": "[2]; Day 35, 10000 sperm", "result": 559}, {"measurement": "abnormal sperm: Amorphous", "setting": "[2]; Day 35, 10000 sperm", "result": 248}, {"measurement": "abnormal sperm: Banana shape", "setting": "[2]; Day 35, 10000 sperm", "result": 91}, {"measurement": "abnormal sperm: Double head", "setting": "[2]; Day 35, 10000 sperm", "result": 13}, {"measurement": "abnormal sperm: Double tail", "setting": "[2]; Day 35, 10000 sperm", "result": 25}, {"measurement": "abnormal sperm: Fat head", "setting": "[2]; Day 35, 10000 sperm", "result": 21}, {"measurement": "abnormal sperm: Fold tail", "setting": "[2]; Day 35, 10000 sperm", "result": 12}, {"measurement": "abnormal sperm: No hook", "setting": "[2]; Day 35, 10000 sperm", "result": 149}, {"measurement": "Number of Abnormal sperm (x ± SD)", "setting": "[2]; Day 35, n = 10", "result": 55.90}, {"measurement": "Sperm deformity", "setting": "[2]; Day 35, n = 10", "result": "5.26 ± 0.18", "unit": "%"}]}]}
